Measurements reported in patent publication US7855232B2, “Organoselenium compound for cancer chemoprevention” (LKT Laboratories, Inc., priority 2001, dated 2010).
Marks after values point to notes of the source that are not given here. Each block holds one compound with its values, some of them ahead of it.

Columns and labels:
[1] = test system: Glutathione S-Transferase; test: Glutathione S-transferase (GST) activity in tissue cytosol of treated mice, CDNB substrate; assay type: in vivo, Female A/J mice; settings: for Ratio Test/con (GST): gavage; for GST act.: gavage in corn oil
Protocol: The activity of cytosolic was assayed according to the method of Habig et al. using 1-chloro-2,4-dinitrobenzene (CDNB) as the substrate. Habig et al, J. Biol. Chem. 249:7130-7139 (1974). The complete solution contains, in a total volume of 2.0 mL, 0.1 M phosphate buffer, pH 6.5, 5 mM glutathione, 1 mM CDNB, and 20 μL of the cytosol. The reaction was monitored at 340 nm in a Beckman Model DU65 UV-VIS spectrophotometer. Assays were performed at 30° C. Complete assay mixture without the cytosolic enzyme was used as the reference blank. Data as analyzed by the Student's “t” test and P values were obtained in comparison to the control.

GSH = test: Glutathione (GSH) concentration in tissues of treated mice, HPLC; assay type: in vivo, Female A/J mice; settings: for Ratio Test/con (GSH): gavage; for GSH conc.: gavage in corn oil
Protocol: GSH was quantitated by modification of the procedure Siller-Cepeda et al. Plant Cell Physiol. 32:1179-1185 (1991). Aliquots of tissue homogenates were mixed with equal volumes of 20% PCA containing 2 mM BPDS. Vortex, centrifuge at 7800×g for 15 minutes at 4° C. and 250 μl supernatant transferred into a microfuge tube containing 25 μl of γ-glu-glu as internal standard. The samples were carboxymethylated with 25 μl of 100 mM iodoacetic acid dissolved in 0.2 mM m-cresol purple sodium salt solution. The pH of the solution was adjusted to 9-10 by adding 350 μl of KOH (2M)-KHCO3 (2.4 M) mixture and incubated in the dark for 15 minutes. After carboxymethylation, the samples were derivatized with 500 μl of 1% dinitrofluorobenzene (DNFB) and kept in the dark at 4° C. overnight. The samples were centrifuged at 13,000×g for 15 minutes, filtered through 0.2 μm filter, and were analyzed with a SHIMADZU two-pump gradient HPLC system. Samples were injected by a SHIMADZU SIL-10AV Autoinjector onto a Varian 3-aminopropyl MICROSORB-MV column (4.6×250 mm) operated at ambient temperature with a flow rate of 1 ml/min. Absorbance of the dinitrophenyl derivatives was monitored at 365 nm. The amount of GSH was calculated from a standard curve using γ-glu-glu as internal standard.

[2] = test system: UDP-Glucuronosyltransferase (UDP-GT); test: UDP-glucuronosyltransferase (UDP-GT) activity in liver microsomes of treated mice, o-aminophenol substrate; assay type: in vivo, Female A/J mice; settings: for Ratio Test/con (UDP-GT): gavage; for UDP-GT activity (column head prints GSH conc.): gavage in corn oil
Protocol: Microsomal samples were assayed for enzymatic conjugation by modifying the procedure of Zakim et al., Methods of Biochemical Analysis, ed. David Glick, 21:1-37, (1973). using o-aminophenol as the substrate. The complete assay solution contains, in a total volume of 500 μl, 0.25 M phosphate buffer (pH 7.6), 0.002 M o-aminophenol, 0.05 M UDPGA, 0.125 M magnesium chloride and 100 μl microsomes. The mixture was incubated for 30 minutes. Reactions were stopped by the addition of 500 μl of TCA-sodium phosphate reagent. The precipitated protein was removed, 100 μl of 0.05% sodium nitrite was added to 950 μl of the supernatent solution and allowed to stand for 5 minutes. 100 μl of 0.5% ammonium sulfamate was added, after 5 minutes. 100 μl of 0.12% N-(-1-naphthyl)ethylenediamine dihydrochloride was added and incubated for 2 hours in the dark; and the difference in the optical density between the blanks and the samples were recorded at 555 nm in a Beckman model DU65 UV-VIS spectrophotometer. The UDP-GT activity was calculated using the extinction coefficient 29 mM-1 cm-1 for the coupled product.

aberrant crypts (AC) = test: Inhibition of DMH-induced aberrant crypt (AC) formation in colon; assay type: in vivo, Female CF1 mice; settings: high dose 0.04 mmol/kg body weight, gavage, without DMH
From the text: Precancerous lesions called aberrant crypts (AC) are used as a marker for colon carcinogenesis. Mice and rats, when exposed to colon-specific carcinogen, develop preneoplastic changes in colon crypts which leads to malignancy through dysplasia-carcinoma sequence. […] McLellan et al., Cancer Res. 48:6183-6186 (1988); McLellan et al., Cancer Res. 48:2311-2315 (1988).
The effect of colon-specific carcinogenesis is typically seen in the induction of AC formation in less than two weeks. AC formation is dose dependent and can be quantitated without elaborate instrumentation. In view of the short time-frame required to get quantifiable results, this bio-assay is a useful prescreening tool for the evaluation of chemopreventative efficacy of compounds that are effective against colon cancer. The protocol for aberrant crypts is shown below:
Female CF1 mice, 3 weeks of age, were purchased from Harlan Sprague-Dawley, Indianapolis, 1N. They were housed, 5 mice per cage, in temperature and humidity-controlled animal quarters with 12 hours light/dark cycle and fed AIN 76A semipurified diet until the ent of the experiment. Water was given ad libitim. The animals were separated into experimental and control groups. The test compounds 0.03-0.04 mmol/kg body weight dissolved in 0.3 mL corn oil, were given by gavage one per day for 8 days. One hour after the inhibitors administration on the 4th and 8th days, 0.4 mg of DMH in 0.2 mL of 0.001 M EDTA, adjusted to pH 6.5 with sodium bicarbonate, was given by gavage. Starting on the 9th day, the inhibitors were given once every other day for an additional 3 weeks. This regimen of inhibitor administration ensures the coverage both the initiation and post initiation periods of carcinogen exposure.
At the end of the 3 week period, the animals were sacrificed and the colons removed. The starting and terminating weights of the animals were recorded. The procedures for the determination of aberrant crypts were those reported by Bird (Cancer Letters 37:147-151 (1987)). The mouse colon including the caecum was removed, rinsed with PBS, and opened longitudinally. The colon contents was removed by washing with PBS. The colon was spread mucosal side up on a piece of filter paper and fixed in buffered formalin overnight. It was then stained with 0.2% methylene blue in PBS for 60 min. The AC foci was read under light microscope. The AC are topographically distinguished by their increased size, increased pericryptal zone, and thicker and deeply stained epithelial lining compared to normal crypts. The number of foci and AC in the colorectal and caecal parts of the colon were recorded separately. The significance of the data was determined by the analysis of variance method. The significance of the incidence of aberrant crypts bearing animals was analyzed by the X^2 test. The aberrant crypts were examined histologically to verify the dysplastic nature of the changes in animals treated with carcinogens and those treated with carcinogens and inhibitors.

[3] = colon, dose 0.02 mmol/Kg body weight
[4] = colon, dose 0.04 mmol/Kg body weight
[5] = forestomach, dose 0.02 mmol/Kg body weight
[6] = forestomach, dose 0.04 mmol/Kg body weight
[7] = liver, dose 0.02 mmol/Kg body weight
[8] = liver, dose 0.04 mmol/Kg body weight
[9] = lung, dose 0.02 mmol/Kg body weight
[10] = lung, dose 0.04 mmol/Kg body weight
[11] = small intestinal mucosa, dose 0.02 mmol/Kg body weight
[12] = small intestinal mucosa, dose 0.04 mmol/Kg body weight

melting point: 48 to 50 °C
Compound: N#C[Se]C([Se]C#N)c1cccs1 [(1) TMSC, 2-thienyl methylene selenocyanate]

Compound: [Se]=C=NCc1ccc(CN=C=[Se])s1 [(6) TDMISC, thienyl-2,5-di-methylene isoselenocyanate]
Ratio Test/con (GST) [1, 3]: 1.12
GST act. [1, 3]: 0.73 ± 0.026 ^g μmol/min mg protein
Ratio Test/con (GST) [1, 4]: 1.14
GST act. [1, 4]: 0.74 ± 0.04 ^f μmol/min mg protein
Ratio Test/con (GST) [1, 5]: 0.93
GST act. [1, 5]: 1.03 ± 0.20 μmol/min mg protein
Ratio Test/con (GST) [1, 6]: 1.11
GST act. [1, 6]: 1.23 ± 0.35 μmol/min mg protein
Ratio Test/con (GST) [1, 7]: 1.90
GST act. [1, 7]: 2.43 ± 0.46 ^e μmol/min mg protein
Ratio Test/con (GST) [1, 8]: 2.53
GST act. [1, 8]: 3.24 ± 0.39 ^e μmol/min mg protein
Ratio Test/con (GST) [1, 9]: 1.29
GST act. [1, 9]: 0.44 ± 0.04 ^f μmol/min mg protein
Ratio Test/con (GST) [1, 10]: 1.73
GST act. [1, 10]: 0.59 ± 0.29 μmol/min mg protein
Ratio Test/con (GST) [1, 11]: 2.45
GST act. [1, 11]: 0.54 ± 0.11 ^e μmol/min mg protein
Ratio Test/con (GST) [1, 12]: 2.41
GST act. [1, 12]: 0.53 ± 0.03 ^c μmol/min mg protein
Ratio Test/con (GSH) (GSH; [7]): 0.95
GSH conc. (GSH; [7]): 3.38 ± 1.11 μmol/gm tissue weight
Ratio Test/con (GSH) (GSH; [8]): 1.49
GSH conc. (GSH; [8]): 5.29 ± 1.09 μmol/gm tissue weight
Ratio Test/con (GSH) (GSH; [11]): 1.07
GSH conc. (GSH; [11]): 2.26 ± 1.87 μmol/gm tissue weight
Ratio Test/con (GSH) (GSH; [12]): 1.76
GSH conc. (GSH; [12]): 3.71 ± 0.31^d μmol/gm tissue weight
Ratio Test/con (UDP-GT) ([2]; dose 0.02 mmol/Kg body weight): 1.50
UDP-GT activity (column head prints GSH conc.) ([2]; dose 0.02 mmol/Kg body weight): 6.08 ± 0.76 ^d nmol/min/mg protein
Ratio Test/con (UDP-GT) ([2]; dose 0.04 mmol/Kg body weight): 1.49
UDP-GT activity (column head prints GSH conc.) ([2]; dose 0.04 mmol/Kg body weight): 7.98 ± 2.49 nmol/min/mg protein
% animals (aberrant crypts (AC)): 0.0%
AC/Colon (aberrant crypts (AC)): 0.00
AC/Foci (aberrant crypts (AC)): 0.00
ACF/Colon (aberrant crypts (AC)): 0.00
Total AC (aberrant crypts (AC)): 0
Total ACF (aberrant crypts (AC)): 0
